Measurements as given in patent US20040265940A1, “Amperometer sensor” (priority 2001, published 2004).
Read-outs that look alike come from different tables or passages of the source.

Legend:
[1] = Potential of oxidation peak at a glassy carbon electrode; type: physicochemical; conditions: pH 6.95 bis-tris buffer, Ag/AgCl/sat. KCl reference electrode
[2] = cited from earlier work; for Solubility: values obtained from SRC PhysProp Database
[3] = versus SCE; cited from earlier work

| Eox (potential of oxidation peak) [1] | SMILES | solubility in water ([2]; in water at 25° C.) | Solubility [2] | oxidation potential [3] | solubility in water ([2]; in water at 18° C.) |
| --- | --- | --- | --- | --- | --- |
| 137 mV | CC1=CC(=O)C=C(C)C1=O | 7888 mgL^−1 | 7.88 E+03 (SRC) mg/L | – | – |
| 156 mV | COC1=C(OC)C(=O)C(C)=CC1=O [2,3-dimethoxy-5-methyl-1,4-benzoquinone] | 11,000 mgL^−1 | 1.11 E+04 (SRC) mg/L | – | – |
| 158 mV | COC1=CC(=O)C=C(CO)C1=O [2-hydroxymethyl-6-methoxy-1,4-benzoquinone] | – | – | – | – |
| 229 mV | O=C1C=CC(=O)C(c2ccccc2)=C1 [Phenyl-1,4-benzoquinone] | 1135 mgL^−1 | 1.14 E+03 (SRC) mg/L | – | – |

More lines, now with the values behind:

| SMILES | Eox (potential of oxidation peak) [1] | solubility in water ([2]; in water at 25° C.) | Solubility [2] | oxidation potential [3] | solubility in water ([2]; in water at 18° C.) |
| --- | --- | --- | --- | --- | --- |
| O=C1C=CC(=O)C=C1 [1,4-benzoquinone, reference compound] | 278 mV | – | 1.11 E+04 (SRC) mg/L | approximately +400 mV | 11,000 mgL^−1 |
| COC1=CC(=O)C=C(OC)C1=O [2,6-dimethoxy-1,4-benzoquinone] | 166 mV | 70,600 mgL^−1 | 7.06 E+04 (SRC) mg/L | – | – |
| CC1=C(C)C(=O)C(C)=C(C)C1=O [Tetramethyl-1,4-benzoquinone] | −37 mV | 443 mgL^−1 | 4.43 E+02 (SRC) mg/L | – | – |
